Patent US7955618B2, “Composition for treatment of inflammatory disorders” (Enceladus Pharmaceuticals B.V., priority 2001, dated 2011)

Assays:
[1] = test system: AT-EAE (T cells and macrophages in spinal cord); conditions: 50 mg/kg i.v. at 18 h and 6 h before perfusion
Experimental: Adoptive Transfer Experimental Autoimmune Encephalomyelitis (AT-EAE) was induced in female Lewis rats by intravenous injection of 10^7 MBP-specific T cells.
10 mg/kg prednisolone phosphate containing liposomes, as prepared according to Example I, were applied intravenously at 42 hours and 18 hours prior to sacrifice. Another group received 50 mg/kg methylprednisolone intravenously at 18 hours and 6 hours before perfusion. Control rats received empty liposomes and/or saline at equivalent time points.
T cells or macrophages in spinal cord were detected immunohistochemically in paraffin embedded tissue and apoptosis was assessed by the TUNEL assay and by morphological criteria. Student t test for grouped data was used for statistical analysis.

[2] = test system: rat adjuvant arthritis model (paw inflammation); assay: Rat adjuvant arthritis model, visual paw inflammation score; assay type: in vivo, Lewis rats; conditions: for average inflammation score: day 15 until day 21, 6.5±0.56 on day 14, daily saline max 10.6±1.3 on day 20; for effect on course of the disease (paw inflammation): single injection, doses equal to liposomal drug, p>0.05 Kruskall-Wallis
Experimental: Lewis rats were immunized subcutaneously at the tail base with heat-inactivated Mycobacterium tuberculosis in incomplete Freund's adjuvant.
Assessment of the disease was performed by visually scoring paw inflammation severity, maximum score 4 per paw, and measuring disease-induced body weight loss. […] Rats were treated when the average score >6 (at day 14 or 15 after disease induction).

Row | Molecule | clinical score ([1]; controls 3.2±0.3) | macrophage infiltration in spinal cord ([1]; controls 78±37) [macrophages/mm^2] | T cell infiltration in spinal cord ([1]; controls 115±51) [T cells/mm^2] | rate of T cell apoptosis in spinal cord tissue ([1]; mean±SD, control 16.1±4.3%) [%] | average inflammation score ([2]; 10 mg/kg daily for 7 days) | average inflammation score ([2]; 20 mg/kg daily for 7 days) | effect on course of the disease (paw inflammation) [2] | effect on course of the disease (paw inflammation) ([2]; listed as unencapsulated prednisolone phosphate)
1 | C[C@H]1C[C@@H]2[C@H]([C@@H](O)C[C@@]3(C)[C@H]2CC[C@]3(O)C(=O)CO)[C@@]2(C)C=CC(=O)C=C12 [Methylprednisolone, methylprednisolone] | 3.2±0.3 | 66±25 | 96±19 | 30.8±8.0 | – | – | – | –
2 | prednisolone disodium phosphate [Unencapsulated prednisolone phosphate] | – | – | – | – | around 5.0 | around 5.0 | did not significantly alter the course of the disease | No effect
